Entries after “also recorded” stand apart in the source; their conditions may differ. Read-outs that look alike come from different tables or passages of the source.
Legend:
Hs 919.T. = assay: Hits validation, dose-response cell proliferation (CellTiter-Glo); format: cell-based; conditions: control cell line, 12-point dose-response, mean ± SD
Description: These drugs were chosen based on their known mechanisms and safety profiles. We also tested the synergy between these drug hits (Supplementary Figures S6–S11). […] We evaluated the anti-proliferation effect in combination treatments using the EWS and control cell lines.
For hits validation and combination study, cells were harvested and aliquoted into 384-well plates at concentrations of 750–1,500 cells per well in a total of 20 μl/well using a Matrix Wellmate (Thermo Scientific). Five μl of culture media containing either vehicles or drug were added to each well the next day (drug concentrations range from 1 nmol/L to 50 μmol/L). For combination study, selected drugs were archived in robotically accessible plates, to which media was added in preparation for addition to master plates by a Nimbus 96 liquid-dispensing workstation (Hamilton). Liquid transfers to dilution and assay plates were handled using the same workstation. Each 384-well master plate contained four 9 by 9 dose-matrix blocks, with eight serial two-fold dilutions (concentrations range from 7.8 nmol/L to 1 μmol/L). Additional wells were reserved for untreated, and vehicle-treated control wells. Cell proliferation was evaluated using Cell-Titer Glo® reagents (Promega). IC50 values were determined for each drug using SigmaPlot (Systat Software). The combination index values were calculated using SigmaPlot (Systat Software) and CompuSyn.

[1] = cited from earlier work; for tumors of the renal tubular epithelium: 12-month study, rats
natural killer cells = tested on: natural killer cells; parameters: method as in ref 19 (a number printed in a supplementary file, which may have a reference list of its own: not looked up in the article's list); conditions: cited from earlier work
human lymphocyte = tested on: human lymphocyte; parameters: method as in ref 19 (a number printed in a supplementary file, which may have a reference list of its own: not looked up in the article's list); conditions: 0.1 - 1.0 µg auranofin/mL; cited from earlier work
Rhesus monkey lung = tested on: Rhesus monkey lung; parameters: method as in ref 19 (a number printed in a supplementary file, which may have a reference list of its own: not looked up in the article's list); conditions: 1.5 x 10^-4M; cited from earlier work
[2] = cited from earlier work
[3] = mice, 18 months, cited from earlier work
[4] = parameters: method as in ref 19 (a number printed in a supplementary file, which may have a reference list of its own: not looked up in the article's list); conditions: dog, cited from earlier work
[5] = Auranofin dose tolerance studies (maximum tolerated dose); format: in vivo, BALB/c mice
Source text: These findings led us to develop and assess injectable (i.v. and i.p.) formulations of auranofin. By defining maximum tolerated dose (MTD) following i.v. and i.p. administration of solution and suspension formulations of auranofin, our intent was to evaluate auranofin alone and in combination with ganetespib at MTD in mouse xenograft studies using the more convenient i.p. route of administration. Following administration of the solution formulation of auranofin i.v. and i.p., the maximum tolerated dose was estimated at 1 mg/kg and 6 mg/kg, respectively. Following a single i.p. suspension dose of auranofin, the maximum tolerated dose was 16 mg/kg. This dose was reduced to 12 mg/kg and dose tolerance was evaluated after 5 daily doses of auranofin suspension i.p. to determine the effects of the accumulation of gold in the blood due to the slow elimination of gold. Based on the i.p. suspension dose tolerance studies, the auranofin suspension formulation and dose level of 12 mg/kg was selected for evaluation in xenograft mouse studies.
The auranofin dose tolerance and pharmacokinetics study protocols were approved by the KU-Lawrence Institutional Animal Care and Use Committee (KU-IACUC). Subchronic dose tolerance studies were conducted in BALB/c mice to support the design of EWS mouse xenograft studies. By establishing the Maximum Tolerated Dose (MTD), we defined the upper limit of doses selected for EWS mouse xenograft and in vivo pharmacokinetics studies. Mice received a single dose of auranofin solution and suspension administered by i.v. and i.p. routes of administration. Following a starting dose of 1 mg/kg, doses were escalated in subsequent mice until intolerable drug-related adverse effects were observed. MTD was defined as the maximum dose that was not associated dose-limiting adverse effects in mice. The MTD was confirmed in a group of 3 mice. Mice were continuously monitored for up to 4 hours post-dose.

[6] = Dissociation of auranofin in plasma, whole blood and simulated gastric fluid; format: in vitro ADME; conditions: unpublished results

CC(=O)OC[C@H]1O[C@@H]([S-])[C@H](OC(C)=O)[C@@H](OC(C)=O)[C@@H]1OC(C)=O.CCP(CC)CC.[Au+] [Auranofin, auranofin]
IC50 (Hs 919.T.): 5.38 ± 0.89 µM
tumors of the renal tubular epithelium ([1]; 3.6 mg/kg/day): did not
tumors of the renal tubular epithelium ([1]; 23 mg/kg/day): tum ors of the renal tubular epithelium; also recorded: developed adenomas of the renal tubular epithelium
frequency of renal tubular cell karyomegaly and cytomegaly and renal adenoma ([1]; 24-month study in rats, auranofin 1.0 or 2.5 mg/kg/day orally, gold sodium thiomalate 2 or 6 mg/kg twice weekly): significant incr ease
activity of natural killer cells (natural killer cells; high concentrations, 1.0 - 2.5 µg auranofin/mL): inhibited
activity of natural killer cells (natural killer cells; low concentrations, 0.125 - 0.5 µg auranofin/mL): stimulated
phytohemagglutinin-induced mitogenesis (human lymphocyte): inhibited
anti-human IgE-induced release of histamine and SRS-A (Rhesus monkey lung): inhibition
findings in pregnant rats ([2]; 2.5 mg/kg/day): No such effects were found
findings in pregnant rats ([2]; 5 mg/kg/day): increase above controls in the inc idence of resorptions and a decrease in litter size
perinatal and postnatal study findings, high dose group ([2]; female rats, 8 mg/kg/day, last trimester and lactation): An increase in fetal resorption
general reproductive performance ([2]; female rats, oral 0.25, 0.75 and 3.0 mg/kg/day): no adverse effect on estrous cyclicity
litter size, birth weight or viability of the offspring ([2]; female rats, oral 0.5, 2.5 and 5 mg/kg/day, days 6-15 of pregnancy): no effect on litter size
instances of tumors above controls ([3]; oral 1, 3 and 9 mg/kg/day): no statistica ll y significant increase
tumor findings ([3]; oral 1, 3 and 6-9 mg/kg/day): increase in benign
absorption after oral dosing [4]: 26%
blood gold in plasma proteins [4]: 17%
blood gold in red blood cells [4]: 82%
urinary excretion [4]: 16%
elimination in feces ([4]; within 21 days): 83%
maximum tolerated dose ([5]; solution formulation, i.p.): 6 mg/kg
maximum tolerated dose ([5]; solution formulation, i.v.): 1 mg/kg
maximum tolerated dose ([5]; suspension, single i.p. dose): 16 mg/kg
stability in plasma and whole blood ex vivo and simulated gastric fluid in vitro [6]: immediately and completely dissociates

From paper PMC5354814, “In silico and in vitro drug screening identifies new therapeutic approaches for Ewing sarcoma” (Oncotarget, 2016)
